Biological target: PI3Kalpha (Homo sapiens (Human), UniProt P42336)
Settings: read-out: IC50 PI3K

Chain of PI3Kalpha (P42336 whole entry, looked up): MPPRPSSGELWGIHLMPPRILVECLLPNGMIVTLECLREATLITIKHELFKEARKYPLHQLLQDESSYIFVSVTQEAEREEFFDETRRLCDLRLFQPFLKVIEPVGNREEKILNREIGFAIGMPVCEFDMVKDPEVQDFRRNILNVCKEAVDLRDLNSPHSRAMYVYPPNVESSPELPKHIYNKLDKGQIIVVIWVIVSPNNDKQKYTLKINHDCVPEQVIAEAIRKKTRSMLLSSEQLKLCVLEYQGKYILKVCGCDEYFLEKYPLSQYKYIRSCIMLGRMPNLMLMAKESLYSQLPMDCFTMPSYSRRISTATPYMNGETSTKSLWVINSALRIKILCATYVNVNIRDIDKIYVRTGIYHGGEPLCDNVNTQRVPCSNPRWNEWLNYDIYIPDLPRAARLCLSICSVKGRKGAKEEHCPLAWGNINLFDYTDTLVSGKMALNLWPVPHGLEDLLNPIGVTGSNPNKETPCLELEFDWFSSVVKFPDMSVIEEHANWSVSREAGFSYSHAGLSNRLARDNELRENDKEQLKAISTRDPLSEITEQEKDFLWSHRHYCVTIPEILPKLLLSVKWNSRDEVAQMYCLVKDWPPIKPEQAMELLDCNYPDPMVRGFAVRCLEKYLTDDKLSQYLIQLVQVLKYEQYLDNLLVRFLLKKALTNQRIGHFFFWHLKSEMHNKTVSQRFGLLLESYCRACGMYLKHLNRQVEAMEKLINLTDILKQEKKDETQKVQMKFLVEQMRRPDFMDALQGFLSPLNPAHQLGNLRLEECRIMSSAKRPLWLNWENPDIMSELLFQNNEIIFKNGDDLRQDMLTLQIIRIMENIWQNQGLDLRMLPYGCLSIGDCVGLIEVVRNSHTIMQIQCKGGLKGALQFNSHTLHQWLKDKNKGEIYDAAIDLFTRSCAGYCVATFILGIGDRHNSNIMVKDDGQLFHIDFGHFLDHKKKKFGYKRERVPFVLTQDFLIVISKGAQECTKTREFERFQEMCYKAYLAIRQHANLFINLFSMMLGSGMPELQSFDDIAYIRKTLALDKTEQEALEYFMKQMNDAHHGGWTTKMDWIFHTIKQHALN

Compound | IC50 [nM]
CCc1ncnc(-c2ccc(C(=O)N3CCn4ccnc4C3)c(F)c2)c1C#Cc1ccc(N)nc1 [Example E-249] | 60.5
COc1ccc(-c2ncnc(C)c2C#Cc2ccc(N)nc2)cn1 [Example C-23] | 78
Cc1ncnc(-c2ccc(C(=O)N(C)C)cc2)c1C#Cc1ccc(N)nc1 [Example C-6] | 86
CCc1ncnc(-c2ccc(C(=O)N3CCN(CCN(C)C)CC3)c(OC)c2)c1C#Cc1ccc(N)nc1 [Example D-60] | 546
CCc1ncnc(-c2ccc(C(=O)N3CCN4CCCCC4C3)c(F)c2)c1C#Cc1ccc(N)nc1C [Example D-18] | 481
CCc1ncnc(-c2ccc(C(=O)N3CCCC(N(C)C)C3)c(Cl)c2)c1C#Cc1ccc(N)nc1 (centres unmarked) [Example E-75] | 275
CCc1ncnc(-c2cc(F)c(C(=O)N3CCN(C)C[C@@H]3C)c(Cl)c2)c1C#Cc1ccc(N)nc1 [Example E-341] | 282
CCc1ncnc(-c2ccc(C(=O)NC[C@H]3CCCN3CC)c(F)c2)c1C#Cc1ccc(N)nc1 [Example D-200] | 566
CCc1ncnc(-c2ccc(C(=O)N3CCn4cnnc4C3)c(F)c2)c1C#Cc1ccc(N)nc1 [Example E-248] | 50.8
CCc1ncnc(-c2cc(F)c(C(=O)N3CCN(CC)CC3)c(F)c2)c1C#Cc1ccc(N)nc1 [Example E-3] | 276
CCc1ncnc(-c2ccc(C(=O)N3CCN(CCO)CC3)c(F)c2)c1C#Cc1ccc(N)nc1 [Example D-91] | 109
CCc1ncnc(-c2ccc(C(=O)N3CCN(CC4CCCCC4)CC3)c(C)c2)c1C#Cc1ccc(N)nc1 [Example E-113] | 414
CCc1ncnc(-c2ccc(C(=O)N3CCC4(CC3)CC(N)C4)c(F)c2)c1C#Cc1ccc(N)nc1 [Example E-320] | 1300
CNC(=O)c1cc(-c2ncnc(C)c2C#Cc2ccc(N)nc2)ccc1F [Example C-43] | 184
CCc1ncnc(-c2ccc(C(=O)N3CCN(CC(=O)N(C)C)CC3)c(F)c2)c1C#Cc1ccc(N)nc1C [Example D-23] | 123
Cc1ncnc(-c2ccc(C(=O)N3CC(O)CO3)c(Cl)c2)c1C#Cc1ccc(N)nc1 [Example D-232] | 38
CCc1ncnc(-c2ccc(C(=O)N(C)CCN3CCCC3=O)c(Cl)c2)c1C#Cc1ccc(N)nc1 [Example E-85] | 56.4
CCc1ncnc(-c2ccc(C(=O)N3CC4(CNC4)C3)c(F)c2)c1C#Cc1ccc(N)nc1 [Example E-269] | 252
CCc1ncnc(-c2cc(Cl)c(C(=O)N3CCN(CC(F)F)CC3)c(Cl)c2)c1C#Cc1ccc(N)nc1 [Example E-202] | 85.8
Cc1ncnc(-c2ccccc2)c1C#Cc1ccc(N)nc1 [Example C-7] | 39
CCc1ncnc(-c2ccc(C(=O)N3CC4(CNC4)C3)c(Cl)c2)c1C#Cc1ccc(N)nc1 [Example E-270] | 328
CCc1ncnc(-c2ccc(C(=O)N3C[C@H]4CNC[C@H]4C3)c(F)c2)c1C#Cc1ccc(N)nc1 [Example E-330] | 601
CCc1ncnc(-c2ccc(C(=O)N3CCN(c4ccccc4)CC3)c(C)c2)c1C#Cc1ccc(N)nc1 [Example E-135] | 149
CCc1ncnc(-c2ccc(C(=O)N3CC[C@@H](N(C)C)C3)c(OC(F)(F)F)c2)c1C#Cc1ccc(N)nc1 [Example E-224] | 402
CCc1ncnc(-c2cc(F)c(C(=O)N3CCN(C=O)CC3)c(F)c2)c1C#Cc1ccc(NC)nc1 [Example E-219] | 163

Compound | IC50 [nM]
CCc1ncnc(-c2ccc(C(=O)NCC3CCNCC3)c(F)c2)c1C#Cc1ccc(N)nc1 [Example E-168] | 373
CCc1ncnc(-c2cc(F)c(C(=O)N3CCC(CO)CC3)c(F)c2)c1C#Cc1ccc(NC)nc1 [Example E-220] | 293
CCc1ncnc(-c2cc(F)c(C(=O)N3CCN(CCCS(C)(=O)=O)CC3)c(F)c2)c1C#Cc1ccc(N)nc1 [Example E-146] | 45.8
CCc1ncnc(-c2ccc(C(=O)N3CCN(C)CC3)c(OC(F)(F)F)c2)c1C#Cc1ccc(N)nc1 [Example E-225] | 224
CCc1ncnc(-c2ccc(C(=O)N3CCC4(CNC4)C3)c(F)c2)c1C#Cc1ccc(N)nc1 [Example E-324] | 935
CCc1ncnc(-c2ccc(C(=O)N3CCC4(CC3)CN(C)C4)c(F)c2)c1C#Cc1ccc(N)nc1 [Example E-339] | 331
CCc1ncnc(-c2cc(F)c(C(=O)N3CCn4c(COC)nnc4C3)c(F)c2)c1C#Cc1ccc(N)nc1 [Example E-170] | 96.5
CCc1ncnc(-c2ccc(C(=O)N3CCN(C)CC3)c(Cl)c2)c1C#Cc1ccc(NC)nc1 [Example E-191] | 142
CCc1ncnc(-c2ccc(C(=O)NC3CC(C)(C)NC(C)(C)C3)c(F)c2)c1C#Cc1ccc(N)nc1 [Example D-213] | 272
CCc1ncnc(-c2cc(F)c(C(=O)NC)c(F)c2)c1C#Cc1ccc(N)nc1 [Example E-12] | 65
CCc1ncnc(-c2ccc(C(=O)NC3CCN(C)CC3)c(F)c2)c1C#Cc1ccc(N)nc1 [Example D-65] | 436
CCc1ncnc(-c2ccc(C(=O)N3CCN4CCCC[C@H]4C3)c(F)c2)c1C#Cc1ccc(N)nc1 [Example E-144] | 169
CCc1ncnc(-c2ccc(C(=O)N3CCN(C)C[C@@H]3C)c(F)c2)c1C#Cc1ccc(N)nc1 [Example E-348] | 144
CCc1ncnc(-c2ccc(C(=O)N3CCN(Cc4ncon4)CC3)c(F)c2)c1C#Cc1ccc(N)nc1 [Example E-346] | 167
CCc1ncnc(-c2ccc(C(=O)N3CCN(Cc4cc(C)no4)CC3)c(F)c2)c1C#Cc1ccc(N)nc1 [Example E-290] | 200
CCc1ncnc(-c2ccc(C(=O)N3CCC4(CN(C(=O)OC(C)(C)C)C4)C3)c(F)c2)c1C#Cc1ccc(N)nc1 [Example E-323] | 842
CCOC(=O)N1CCN(C(=O)c2ccc(-c3ncnc(CC)c3C#Cc3ccc(N)nc3)cc2C)CC1 [Example E-107] | 62.9
CCc1ncnc(-c2cc(F)c(C(=O)N3CCC4(CC3)CC(=O)CO4)c(Cl)c2)c1C#Cc1ccc(N)nc1 [Example E-311] | 69.1
CCc1ncnc(-c2ccc(C(=O)N3CCN(C(C)=O)CC3)c(OC)c2)c1C#Cc1ccc(N)nc1 [Example D-56] | 73
CCc1ncnc(-c2cccc(C(=O)N(CC)CC)c2)c1C#Cc1ccc(N)nc1 [Example C-44] | 188
Cc1ncnc(-c2ccc(C(=O)N3CCN(C4CCOCC4)CC3)cc2)c1C#Cc1ccc(N)nc1 [Example D-193] | 65
CCc1ncnc(-c2ccc(C(=O)N3CCC(C(F)(F)F)CC3)c(F)c2)c1C#Cc1ccc(N)nc1C [Example D-14] | 647
CCc1ncnc(-c2ccc(C(=O)N3CCN(C4CCS(=O)(=O)C4)CC3)c(F)c2)c1C#Cc1ccc(N)nc1C [Example D-17] | 178
CCc1ncnc(-c2cc(F)c(C(=O)N3CCN(CC(C)(C)O)CC3)c(Cl)c2)c1C#Cc1ccc(N)nc1 [Example E-240] | 115
CCc1ncnc(-c2ccc(C(=O)N3CCC(N4CCC(C)CC4)C3)c(F)c2)c1C#Cc1ccc(N)nc1 [Example D-108] | 313

Compound | IC50 [nM]
CCc1ncnc(-c2ccc(C(=O)N(C)C3CCOCC3)c(F)c2)c1C#Cc1ccc(N)nc1 [Example E-169] | 70
CCc1ncnc(-c2ccc(C(=O)N3CCN(S(=O)(=O)CC)CC3)c(OC)c2)c1C#Cc1ccc(N)nc1 [Example D-55] | 36
CCc1ncnc(-c2ccc(C(=O)N(C)C)cc2)c1C#Cc1ccc(C)nc1 [Example C-18] | 137
CCc1ncnc(-c2ccc(C(=O)N3CCC4(CCN(C)CC4)CC3)c(C)c2)c1C#Cc1ccc(N)nc1 [Example E-97] | 367
CCc1ncnc(-c2ccc(C(=O)N3CCN(S(=O)(=O)CC)CC3)c(F)c2)c1C#Cc1ccc(N)nc1 [Example D-89] | 52
Cc1ncnc(-c2ccc(C3CC3)nc2)c1C#Cc1ccc(N)nc1 [Example C-26] | 43
Cc1ncnc(-c2ccc(C(=O)N3CCCCO3)c(F)c2)c1C#Cc1ccc(N)nc1 [Example D-227] | 47
CCc1ncnc(-c2ccc(C(=O)N(C)CCCN(C)C)c(F)c2)c1C#Cc1ccc(N)nc1 [Example D-9] | 591
Cc1ncnc(-c2ccc(N3CCCCC3)nc2)c1C#Cc1ccc(N)nc1 [Example C-25] | 64
CCc1ncnc(-c2ccc(C(=O)N3CCN(C)CC3)nc2)c1C#Cc1ccc(N)nc1 [Example D-240] | 214
Cc1ncnc(-c2cccc(C(=O)N3CCOCC3)c2)c1C#Cc1ccc(N)nc1 [Example C-37] | 224
CCc1ncnc(-c2ccc(C(=O)NC3CCCN(C)C3)c(C)c2)c1C#Cc1ccc(N)nc1 (centres unmarked) [Example E-120] | 349
CCc1ncnc(-c2ccc(C(=O)N3CCN(C(C)C)CC3)c(C(F)(F)F)c2)c1C#Cc1ccc(N)nc1 [Example E-230] | 279
CCc1ncnc(-c2cc(F)c(C(=O)N3CCN(CCC#N)CC3)c(Cl)c2)c1C#Cc1ccc(N)nc1 [Example E-243] | 110
CCc1ncnc(-c2ccc(C(=O)NC3CCN(C4CCN(C)CC4)C3)c(F)c2)c1C#Cc1ccc(N)nc1 [Example D-210] | 370
CCc1ncnc(-c2ccc(C(=O)N3CCOC4(CCN(C(=O)OC(C)(C)C)CC4)C3)c(F)c2)c1C#Cc1ccc(N)nc1 [Example E-325] | 1180
CCc1ncnc(-c2ccc(C(=O)N3CCC(O)CC3)c(C)c2)c1C#Cc1ccc(N)nc1 [Example E-132] | 45.5
CCc1ncnc(-c2ccc(C(=O)N3CCCOCC3)c(Cl)c2)c1C#Cc1ccc(N)nc1 [Example D-157] | 65
CCc1ncnc(-c2ccc(C(=O)N3CC(O)CO3)c(C)c2)c1C#Cc1ccc(N)nc1 (centres unmarked) [Example E-93] | 107
CCc1ncnc(-c2ccc(C(=O)N3CCn4ccnc4C3)c(Cl)c2)c1C#Cc1ccc(N)nc1 [Example E-256] | 23
CCc1ncnc(-c2ccc(C(=O)N3CCN(CCO)CC3)c(Cl)c2)c1C#Cc1ccc(N)nc1 [Example D-36] | 84
Cc1ccc(-c2ncnc(C)c2C#Cc2ccc(N)nc2)cn1 [Example C-24] | 59
CCc1ncnc(-c2cc(Cl)c(C(=O)N3CCN(CCC#N)CC3)c(Cl)c2)c1C#Cc1ccc(N)nc1 [Example E-206] | 71.8
CCc1ncnc(-c2ccc(C(=O)N(C)OC)c(C)c2)c1C#Cc1ccc(N)nc1 [Example E-104] | 71.9

Source: patent US8633183B2 (priority 2010, dated 2014)
